The record followed here is patent US20230219965A1 (KSQ Therapeutics, Inc., priority 2020, published 2023).

Series [1] in a line: Liver microsomal metabolic stability, human liver microsomes (HLM). The settings on record: human, liver microsomes.
Series [2] in a line: ADME solubility determination in PBS at pH 2.0 and pH 7.4. It is filed as physicochemical. Particulars: for solubility at 24 h: phosphate buffered saline, 25 °C, thermodynamic from solid. Here is the method:
Certain Compounds of the Disclosure were assessed for ADME solubility at pH 2.0 and pH 7.4.
Stock solutions were prepared by adding each compound to DMSO at a concentration of 10 mM. Samples were prepared by adding 50 μL of each stock solution to separate vials. The vials were loaded onto a 96-well rack and dried. 500 μL of Phosphate Buffered Saline (PBS) pH 7.4 or PBS pH 2.0 were added into each vial. The vials were then shaken at 25° C. and 1,100 rpm for 24 hours.
After 24 hours, the vials were centrifuged at 3220 G and 25° C. for 30 minutes. The supernatant fluid was analyzed by LC-MS/MS against a standard of known concentration. The solubility of each sample was then calculated using the equation below: […]
where DF is the dilution factor.

Series [3] deals with USP1/UAF1 enzyme (Homo sapiens, UniProt O94782). The series can be described thus: USP1/UAF1 deubiquitination assay (ubiquitin-rhodamine 110 substrate). It is filed as biochemical. Particulars: read-out: USP1 IC50 (Ub-Rho). In outline: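 Cleavage of 150 nM ubiquitin-rhodamine 110 by 0.05 nM USP1/UAF1 was followed as fluorescence (Ex480/Em540, kinetic, 30 min) in Tris-HCl pH 7.8 buffer with EDTA, BSA, DTT and Tween-20. Compounds, top 10 μM, were preincubated with enzyme 10 min; % inhibition against no-enzyme and DMSO wells gave four-parameter IC50s.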

The test system of series [4] is Ub-PCNA levels in the nucleus of ES2 cells (USP1 activity). Nature of the series: ES2 Ub-PCNA immunofluorescence (IF) assay. It counts as cell-based. The settings on record: ES2 cells, 3 hours, Ub-PCNA immunofluorescence, read-out: USP1 IC50 (Ub-PCNA). Here is the method: USP1 is a deubiquitinating enzyme that removes ubiquitin from mono-ubiquitinated Proliferating Cell Nuclear Antigen (Ub-PCNA). The levels of Ub-PCNA in the nucleus of cells can be used to assess the activity of USP1. An immunofluorescence assay can be established to monitor Ub-PCNA levels in the ovarian cancer cell line, ES2.
An assay can be performed by first plating 5000 ES2 cells per well in black 96 well plates (Corning #3904) and then incubating overnight at 37° C. and 5% CO2. Compounds, resuspended in DMSO, can be added to the cells, to a final DMSO concentration of 0.3%. Plates can be incubated at 37° C. and 5% CO2 for 3 hours.
Cells can be then fixed and stained by first removing the media from each plate and fixing the cells with −20° C. methanol for 5 minutes at room temperature. Fixation plates can be washed with Tris buffered saline with tween (Boston Bioproducts #IBB-855) 5 times for 5 minutes each. Plates can be blocked for 1 hour with 50 μl of Odyssey blocking buffer (Licor #327-50000) at room temperature with rocking. Block can be removed from all wells and 50 μl of primary antibody was added to each well. Ub-PCNA ab (Cell Signaling Technology #13439) can be diluted at 1:400 in Odyssey blocking buffer. Plates can be sealed and incubated overnight at 4° C. Primary antibodies can be removed from the plates and plates can be washed with Tris buffered saline with tween 5 times for 5 minutes. Plates can be stained for 1 hour at room temperature with rocking with 50 μl of secondary antibodies diluted 1:10,000 in Odyssey blocking buffer at room temperature (anti-rabbit Alexa 488). Antibodies can be removed from the plates and plates can be washed with Tris buffered saline with tween 3 times for 5 minutes. Plates can be washed once with DAPI (Chemometec #910-3012) stain diluted 1:5000 (Stock solution of 500 μg/ml) in tris buffered saline with tween for 5 minutes. DAPI stain can be removed and plates can be washed one additional time for 5 minutes with tris buffered saline with tween. Wash can be removed from the plate and 100 μl tris buffered saline with tween can be added back to all wells, Plates can be sealed with Foil seals or black plate seals and plates can be stored at 4° C. until they can be imaged.
Imaging of the plates can be performed by first locating the nuclei using the DAPI stain. A mask can be created by drawing a circle slightly smaller than each nucleus. Ub-PCNA intensities can be measured for each individual nucleus counted. A histogram of all Ub-PCNA nuclear intensities measured in untreated wells can be generated and a 95% cutoff can be established. This 95% cutoff can be used to determine the number of Positive cells that have Ub-PCNA values higher than the 95% cutoff. The number of positive cells can be expressed as a percentage by dividing by the total number of cells in the well. This percent positive value can be used to graph all data and to determine AC50 values.
USP1 is a deubiquitinating enzyme that removes ubiquitin from mono-ubiquitinated
Proliferating Cell Nuclear Antigen (Ub-PCNA). The levels of Ub-PCNA in the nucleus of cells was used to assess the activity of USP1. An immunofluorescence assay was established to monitor Ub-PCNA levels in the ovarian cancer cell line, ES2.
This assay was performed by first plating 5000 ES2 cells per well in black 96 well plates (Corning #3904) and then incubated overnight at 37° C. and 5% CO2. Compounds, resuspended in DMSO, were added to the cells, to a final DMSO concentration of 0.3%. Plates were incubated at 37° C. and 5% CO2 for 3 hours.
Cells were then fixed and stained by first removing the media from each plate and fixing the cells with −20° C. methanol for 5 minutes at room temperature. Following fixation plates were washed with Tris buffered saline with tween (Boston Bioproducts ABB-855) 5 times for 5 minutes each. Plates were blocked for 1 hour with 50μ.1 of Odyssey blocking buffer (Licor #327-50000) at room temperature with rocking. […]

Series [5] is described as follows: Liver microsomal metabolic stability, rat liver microsomes (RLM). The settings on record: rat, liver microsomes, t1/2 (min) in RLM, 1 μM compound, 1 mg/mL microsomes, NADPH.
[6] abbreviates: pH 2, aqueous buffer, PBS pH 2.0, 25° C., read-out: Solubility at pH 2.0.
The mark [7] stands for this setting: pH 7.4, aqueous buffer, PBS pH 7.4, 25° C., read-out: Solubility at pH 7.4.

pIC50: −log10 of the molar value. Where two headings read alike, the source gives them in different places.

USP1/UAF1 enzyme, sequence (O94782 whole entry): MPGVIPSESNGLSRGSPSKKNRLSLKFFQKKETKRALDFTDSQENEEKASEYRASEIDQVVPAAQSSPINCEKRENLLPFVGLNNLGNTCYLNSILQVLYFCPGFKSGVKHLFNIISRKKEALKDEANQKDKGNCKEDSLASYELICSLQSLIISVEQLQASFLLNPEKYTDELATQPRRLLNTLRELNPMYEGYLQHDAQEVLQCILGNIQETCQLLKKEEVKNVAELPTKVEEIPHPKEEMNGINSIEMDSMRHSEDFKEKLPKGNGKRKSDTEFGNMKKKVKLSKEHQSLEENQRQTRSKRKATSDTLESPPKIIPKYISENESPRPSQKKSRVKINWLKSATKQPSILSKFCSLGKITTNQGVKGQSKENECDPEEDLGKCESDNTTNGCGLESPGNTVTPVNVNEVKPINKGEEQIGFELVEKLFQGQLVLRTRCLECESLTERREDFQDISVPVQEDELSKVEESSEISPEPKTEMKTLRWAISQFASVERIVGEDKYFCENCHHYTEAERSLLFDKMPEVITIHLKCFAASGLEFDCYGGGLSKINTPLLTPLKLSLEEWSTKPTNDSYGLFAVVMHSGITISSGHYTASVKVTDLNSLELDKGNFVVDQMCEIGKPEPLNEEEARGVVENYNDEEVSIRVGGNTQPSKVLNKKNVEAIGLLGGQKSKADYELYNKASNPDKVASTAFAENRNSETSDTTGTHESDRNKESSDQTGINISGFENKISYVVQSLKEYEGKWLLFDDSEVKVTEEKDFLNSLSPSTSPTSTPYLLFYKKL
USP1/UAF1 enzyme, sequence (Q8TAF3 whole entry partner): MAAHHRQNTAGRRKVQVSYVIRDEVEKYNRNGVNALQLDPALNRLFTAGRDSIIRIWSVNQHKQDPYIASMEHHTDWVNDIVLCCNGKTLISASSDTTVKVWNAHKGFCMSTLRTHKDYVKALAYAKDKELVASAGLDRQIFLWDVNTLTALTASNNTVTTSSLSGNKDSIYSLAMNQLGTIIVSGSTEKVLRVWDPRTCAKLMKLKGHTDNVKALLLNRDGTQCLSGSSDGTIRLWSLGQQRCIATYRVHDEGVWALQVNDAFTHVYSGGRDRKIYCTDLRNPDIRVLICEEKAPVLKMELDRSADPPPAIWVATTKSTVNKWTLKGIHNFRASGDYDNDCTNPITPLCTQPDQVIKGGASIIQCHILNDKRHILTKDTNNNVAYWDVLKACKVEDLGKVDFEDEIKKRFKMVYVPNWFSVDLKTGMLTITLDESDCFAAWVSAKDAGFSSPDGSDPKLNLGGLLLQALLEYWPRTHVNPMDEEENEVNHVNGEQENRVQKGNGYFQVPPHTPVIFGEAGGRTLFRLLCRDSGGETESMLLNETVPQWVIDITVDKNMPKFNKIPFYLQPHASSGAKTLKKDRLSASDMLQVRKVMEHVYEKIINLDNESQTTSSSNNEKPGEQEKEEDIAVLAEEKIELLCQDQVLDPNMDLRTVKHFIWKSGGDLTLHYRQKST

Take `COc1ncnc(C2CC2)c1-c1cc2n(n1)CCC(C)N2Cc1ccc(-c2nc(C(F)(F)F)cn2C)cc1` (racemic) [Example 48, 2-(4-cyclopropyl-6-methoxypyrimidin-5-yl)-5-methyl-4-(4-(1-methyl-4-(trifluoromethyl)-1H-imidazol-2-yl)benzyl)-4,5,6,7-tetrahydropyrazolo[1,5-α]pyrimidine]: the half-life at 1 μM in series [1] and in series [5] was under 25 min in each case. Moreover, the solubility at 24 h in series [2] (setting [6]) and in series [2] (setting [7]) was at least 10 µM throughout. Also, the pIC50 in series [3] was over 7.00; in series [4] (Homo sapiens, ES-2) it was over 7.00.
As for `COc1ncnc(C2CC2)c1-c1cc2n(n1)C(C)CCN2Cc1ccc(-c2nc(C(F)(F)F)cn2C)cc1` (racemic) [Example 51, 2-(4-cyclopropyl-6-methoxypyrimidin-5-yl)-7-methyl-4-(4-(1-methyl-4-(trifluoromethyl)-1H-imidazol-2-yl)benzyl)-4,5,6,7-tetrahydropyrazolo[1,5-α]pyrimidine], the half-life at 1 μM in series [1] and in series [5] was under 25 min in each case. The results for the solubility at 24 h in series [2] (setting [6]) and in series [2] (setting [7]) were at least 10 µM and under 10 µM, respectively. The pIC50 in series [3] is over 7.00; in series [4] (Homo sapiens, ES-2) it was over 7.00.
Consider `CCn1cc(C(F)(F)F)nc1-c1ccc([C@H](C)N2CCCn3nc(-c4c(Cl)cnn4C(C)C)cc32)cc1` (single isomer, unassigned) [Example 67], for which the half-life at 1 μM in series [1] and in series [5] was under 25 min each time. Further, the solubility at 24 h in series [2] (setting [6]) was at least 10 µM; in series [2] (setting [7]) it was under 10 µM. Moreover, the pIC50 in series [3] was over 7.00; in series [4] (Homo sapiens, ES-2), over 7.00.
As to `CCn1cc(C(F)(F)F)nc1-c1ccc([C@@H](C)N2CCCn3nc(-c4c(Cl)cnn4C(C)C)cc32)cc1` (single isomer, unassigned) [Example 68], the half-life at 1 μM in series [1] and in series [5] was under 25 min each time. The solubility at 24 h in series [2] (setting [6]) and in series [2] (setting [7]) was under 10 µM each time. In addition, the pIC50 was over 7.00 in series [3] and over 7.00 in series [4] (Homo sapiens, ES-2).
For `CCn1cc(C(F)(F)F)nc1-c1ccc(N[C@@H]2CCCn3nc(-c4c(Cl)cnn4C(C)C)cc32)cc1` (single isomer, unassigned) [Example 238], the half-life at 1 μM in series [1] and in series [5] was over 25 min throughout. Moreover, the solubility at 24 h in series [2] (setting [6]) and in series [2] (setting [7]) was under 10 µM each time. In addition, the pIC50 in series [3] was over 7.00; in series [4] (Homo sapiens, ES-2), over 7.00.
For `CCn1cc(C(F)(F)F)nc1-c1ccc(N[C@H]2CCCn3nc(-c4c(Cl)cnn4C(C)C)cc32)cc1` (single isomer, unassigned) [Example 239], the half-life at 1 μM in series [1] and in series [5] was over 25 min in each case. Further, the solubility at 24 h in series [2] (setting [6]) and in series [2] (setting [7]) was under 10 µM in each case. Also, the pIC50 in series [3] is over 7.00; in series [4] (Homo sapiens, ES-2), over 7.00.
As to `CCn1cc(C(F)(F)F)nc1-c1ccc(N[C@H]2CCCn3nc(-c4c(OC)ncnc4C4CC4)cc32)cc1` (single isomer, unassigned) [Example 242], the half-life at 1 μM in series [1] and in series [5] was over 25 min throughout. Moreover, the solubility at 24 h in series [2] (setting [6]) and in series [2] (setting [7]) was under 10 µM in each case. In addition, the pIC50 was over 7.00 in series [3] and 6.30 to 7.00 in series [4] (Homo sapiens, ES-2).
For the molecule `CCn1cc(C(F)(F)F)nc1-c1ccc(N[C@@H]2CCCn3nc(-c4c(OC)ncnc4C4CC4)cc32)cc1` (single isomer, unassigned) [Example 243], the half-life at 1 μM in series [1] and in series [5] was over 25 min each time. In addition, the figures for the solubility at 24 h in series [2] (setting [6]) and in series [2] (setting [7]) were at least 10 µM and under 10 µM, respectively. Besides, the negative logarithm of the IC50 (pIC50) was over 7.00 in series [3] and 6.30 to 7.00 in series [4] (Homo sapiens, ES-2).
Turning to `CCn1cc(C(F)(F)F)nc1-c1ccc(O[C@H]2CCCn3nc(-c4c(OC)ncnc4C4CC4)cc32)cc1F` (single isomer, unassigned) [Example 263], the half-life at 1 μM in series [1] and in series [5] was over 25 min in each case. Also, the solubility at 24 h in series [2] (setting [6]) and in series [2] (setting [7]) was under 10 µM each time. Moreover, the pIC50 in series [3] was over 7.00; in series [4] (Homo sapiens, ES-2), over 7.00.
Turning to `CCn1cc(C(F)(F)F)nc1-c1ccc(O[C@@H]2CCCn3nc(-c4c(OC)ncnc4C4CC4)cc32)cc1F` (single isomer, unassigned) [Example 264], the half-life at 1 μM in series [1] and in series [5] was over 25 min in each case. The results for the solubility at 24 h in series [2] (setting [6]) and in series [2] (setting [7]) were at least 10 µM and under 10 µM, respectively. Besides, the pIC50 was over 7.00 in series [3] and 6.30 to 7.00 in series [4] (Homo sapiens, ES-2).
For the molecule `CCn1cc(C(F)(F)F)nc1-c1ccc([C@H](C)N2C(=O)CCn3nc(-c4c(C#N)cnn4C(C)C)cc32)cc1F` (single isomer, unassigned) [Example 325], the half-life at 1 μM in series [1] and in series [5] was over 25 min throughout. The solubility at 24 h in series [2] (setting [6]) and in series [2] (setting [7]) was under 10 µM in each case. Also, the pIC50 in series [3] was 6.30 to 7.00; in series [4] (Homo sapiens, ES-2), 6.30 to 7.00.
For `Cc1cnn(C(C)C)c1-c1cc2n(n1)CCCN2Cc1ccc(-c2nc(C(F)(F)F)cn2C)cc1` [Example 47, 2-(1-isopropyl-4-methyl-1H-pyrazol-5-yl)-4-(4-(1-methyl-4-(trifluoromethyl)-1H-imidazol-2-yl)benzyl)-4,5,6,7-tetrahydropyrazolo[1,5-α]pyrimidine], the “Solubility at pH 2.0 (μM)” value in series [2] (PBS pH 2.0, 25° C., 24 hours) is reported as “++ (“++” indicates 10 μM or greater)”. The “Solubility at pH 7.4 (μM)” value in series [2] (PBS pH 7.4, 25° C., 24 hours) was “+ (“+” indicates less than 10 μM)”. In addition, the pIC50 in series [3] and in series [4] was over 7.00 throughout.
On to `CCn1cc(C(F)(F)F)nc1-c1ccc(CN2C(=O)CCn3nc(-c4c(Cl)cnn4C(C)(C)COC)cc32)cc1F` [Example 162], for which the solubility at 24 h in series [2] (setting [6]) and in series [2] (setting [7]) was at least 10 µM in each case. The pIC50 was over 7.00 in series [3] and 6.30 to 7.00 in series [4] (Homo sapiens, ES-2). Further, the half-life at 1 μM in series [5] was under 25 min.
